Values of other authors, collected in patent US20180094248A1, “Necroptosis Signaling as a Therapeutic Target for Alzheimer's Disease” (Arizona Board of Regents on behalf of Arizona State …, priority 2016, published 2018).

Key:
RIPK3 = RIPK3 (Homo sapiens, UniProt Q9Y572); conditions: Kaiser et al., 2013, J. Biol. Chem. 288:31268; cited from earlier work
MLKL = molecular target: T1, MLKL (Homo sapiens, UniProt Q8NB16); conditions: Sun et al., 2012, Cell 148:213-27; cited from earlier work
T1 sequence (Q8NB16 1-471): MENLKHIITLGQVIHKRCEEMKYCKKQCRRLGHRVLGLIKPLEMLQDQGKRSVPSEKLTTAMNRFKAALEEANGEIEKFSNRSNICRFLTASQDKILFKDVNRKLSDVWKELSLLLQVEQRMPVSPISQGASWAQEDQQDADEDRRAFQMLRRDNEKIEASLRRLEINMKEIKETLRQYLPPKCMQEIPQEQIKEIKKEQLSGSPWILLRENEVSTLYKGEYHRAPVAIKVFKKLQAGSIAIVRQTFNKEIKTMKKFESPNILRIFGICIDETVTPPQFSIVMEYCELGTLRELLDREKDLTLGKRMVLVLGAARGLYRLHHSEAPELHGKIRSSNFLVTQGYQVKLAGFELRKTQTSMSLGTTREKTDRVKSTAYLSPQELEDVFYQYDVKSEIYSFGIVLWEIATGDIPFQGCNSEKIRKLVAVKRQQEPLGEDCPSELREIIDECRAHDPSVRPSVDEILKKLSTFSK

RIPK3, sequence (Q9Y572 whole entry): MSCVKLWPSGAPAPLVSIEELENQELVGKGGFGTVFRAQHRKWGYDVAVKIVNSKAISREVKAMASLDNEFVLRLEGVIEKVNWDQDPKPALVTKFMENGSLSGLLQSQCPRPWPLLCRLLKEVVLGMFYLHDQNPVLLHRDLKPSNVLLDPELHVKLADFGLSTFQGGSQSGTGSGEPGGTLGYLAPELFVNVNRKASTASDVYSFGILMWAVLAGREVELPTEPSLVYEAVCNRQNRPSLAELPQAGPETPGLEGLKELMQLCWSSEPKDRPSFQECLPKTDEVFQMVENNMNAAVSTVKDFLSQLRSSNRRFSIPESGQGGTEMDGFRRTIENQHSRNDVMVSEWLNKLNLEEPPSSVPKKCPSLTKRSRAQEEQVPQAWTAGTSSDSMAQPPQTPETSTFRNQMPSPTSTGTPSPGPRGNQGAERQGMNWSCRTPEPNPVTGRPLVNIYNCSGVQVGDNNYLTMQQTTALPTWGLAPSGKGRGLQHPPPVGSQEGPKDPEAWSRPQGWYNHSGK

Structure (SMILES): CC(C)S(=O)(=O)c1ccc2nccc(Nc3ccc4scnc4c3)c2c1 [GSK'872, N-(6-(Isopropylsulfonyl)quinolin-4-yl)benzo[d]thiazol-5-amine]
- inhibition of RIPK3 (selectivity) (RIPK3): selectively inhibits RIPK3

Structure (SMILES): COc1nccnc1NS(=O)(=O)c1ccc(NC(=O)/C=C/c2ccc([N+](=O)[O-])s2)cc1 [necrosulfonamide, (E)-N-[4-[[(3-Methoxy-2-pyrazinyl)amino]sulfonyl]phenyl]-3-(5-nitro-2-thienyl)-2-propenamide]
- inhibition of MLKL (selectivity) (MLKL): selectively inhibits MLKL
